These results are taken from paper PMC6580366 (Journal of Medicinal Chemistry, 2019).

For one data set, the system named is BCRP/MDCK. As to conditions: 5 μM; cited from earlier work.
For data set [1] the following is noted: human, 1 μM; cited from earlier work.
The conditions of data set [2]: dog, 1 μM; cited from earlier work.
Another data set concerns P-gp/Caco-2. As to conditions: 5 μM; cited from earlier work.
For data set [3], the system named is CYP mRNA expression (CYP1A2, CYP2B, CYP3A). As to conditions: 0.5 to 50 μM, 48 h.
Another data set deals with BV2 microglia cell line. As to conditions: cited from earlier work.

Read-outs that look alike come from different tables or passages of the source.

`CN1CCN(c2cc(-c3ccncc3)c(-c3ccc4ccccc4c3)nn2)CC1` [Compound 11, 6-(4-Methylpiperazin-1-yl)-3-(naphthalen-2-yl)-4-(pyridin-4-yl)pyridazine]: in the data set with BCRP/MDCK, the “Permeability MDCK” value is listed as “highly permeable” and the “Pump substrate status BCRP” value is on record as “Not substrate”. In data set [1], the “Hepatocyte stability T1/2” value was “Human, T1/2 > 120 min; dog, T1/2 > 120 min (see ref ([14]))”. For the same compound, the “Hepatocyte stability T1/2” value in data set [2] is “Human, T1/2 > 120 min; dog, T1/2 > 120 min (see ref ([14]))”. Further, in the data set on P-gp/Caco-2, the “Permeability Caco-2” value is given as “highly permeable” and the “Pump substrate status P-gp” value is “Not substrate”. The CYP induction entry in data set [3] was “Negative (see Experimental Section)”. Besides, the “cell proliferation, migration, or phagocytosis” value in the data set with BV2 microglia cell line is reported as “No effect on cell proliferation, migration, or phagocytosis”.
